Values joined by “and” are separate entries in the source; they are usually repeats but may differ in a detail not shown here. Equal entries are not always repeated.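 Interpolation was linear, between the two tested concentrations surrounding the appropriate level; five concentrations were tested over 48 hours in 96-well plates. Here, GI50 denotes the concentration required for 50% inhibition of growth. TGI: total growth inhibition.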 Where a SMILES comes first, the peptide text is derived from it. The star is where a group is joined. Cbz = O=C(OCc1ccccc1)*; Boc = CC(C)(C)OC(=O)*; OSu = O=C1CCC(=O)N1O*; Bn = c1ccc(C*)cc1
Experiments:
Experiment in all cases: DTP human tumour cell line panel, 48 h
[1] = test system: ACHN renal
[2] = test system: BT-549 breast
[3] = test system: EKVX NSCLC
[4] = test system: HCT-116 colon
[5] = test system: KM12 colon
[6] = test system: NCI-H226 lung
[7] = test system: NCI-H23 lung
[8] = test system: OVCAR-8 ovarian
[9] = test system: SF-268 CNS
[10] = test system: SK-MEL-2 melanoma
[11] = test system: T-47D breast
[12] = test system: UACC-257 melanoma
[13] = test system: NCI-H460 lung

Row | Compound | TGI [1] | TGI [2] [µM] | TGI [3] | TGI [4] | TGI [5] | TGI [6] [µM] | TGI [7] | TGI [8] | TGI [9] | TGI [10] | TGI [11] [µM] | TGI [12] | TGI [13] | GI50 [3] | GI50 [5] | GI50 [7] | GI50 [8] | GI50 [10] | GI50 [11] [µM] | GI50 [6] [µM]
1 | CC(=O)N[C@@H](Cc1ccc(O)cn1)C(=O)NC1CCCCC1 | > 100 µM | > 100 | > 100 µM | > 100 µM | > 100 µM | > 100 | > 100 µM | > 100 µM | > 100 µM | > 100 µM | > 100 | > 100 µM |  |  |  |  |  |  |  | 
2 | COc1cc2c(cc1OC)C(=O)/C(=C/c1ccc(N(C)C)cc1)CC2 | > 10 µM | > 10 | > 10 µM | > 10 µM | > 10 µM | > 10 | > 10 µM | > 10 µM | > 10 µM | > 10 µM | > 10 | > 10 µM | > 10 µM |  |  |  |  |  |  | 
3 | COC(=O)[C@@H]1COC(=O)N1 | > 100 µM | > 100 | > 100 µM | > 100 µM | > 100 µM | > 100 | > 100 µM | > 100 µM | > 100 µM | > 100 µM | > 100 | > 100 µM | > 100 µM |  |  |  |  |  |  | 
4 | O=C(O)Cn1ccc(=O)c2cc([N+](=O)[O-])ccc21 | > 100 µM | > 100 |  | > 100 µM | > 100 µM | > 100 | > 100 µM | > 100 µM | > 100 µM | > 100 µM | > 100 | > 100 µM | > 100 µM |  |  |  |  |  |  | 
5 | Clc1ccc(C2=NCON=C2c2ccc(Cl)cc2)cc1 | 54.9 µM | 41.7 | 45.3 µM | 31.3 µM | 39.6 µM | 32.7 | 44.3 µM | 88.7 µM | 57.7 µM | 46.1 µM | 22.8 | 61.4 µM | 40.6 µM |  |  |  |  |  |  | 
6 | O=C1C2CC[C@@H]3C(=O)C(Cl)(Cl)[C@@H]3CCC2C1(Cl)Cl (stereo partly drawn) | > 100 µM | > 100 | > 100 µM | > 100 µM | > 100 µM | > 100 | > 100 µM | > 100 µM | > 100 µM | > 100 µM | > 100 | > 100 µM | > 100 µM |  |  |  |  |  |  | 
7 | CC[C@]1(Cc2ccc(OC)c(OC)c2)C=[N+]([O-])O[C@H](OC2CCCC2(c2ccccc2)c2ccccc2)[C@@H]1OC(=O)C(C)(C)C (stereo partly drawn) | 5.25 µM | > 44.5 | 22.3 µM | 4.58 µM | 5.84 µM | 12.5 | 14.8 µM |  | > 32.5 µM | 7.66 µM | 7.04 | 18.7 µM | 6.92 µM |  |  |  |  |  |  | 
8 | CC[C@@]1(O)C(=O)OCc2c1cc1n(c2=O)Cc2c-1nc1ccccc1c2C=Nc1ccccc1N[C@@H]1c2cc3c(cc2[C@@H](c2cc(OC)c(O)c(OC)c2)[C@H]2C(=O)OC[C@@H]21)OCO3 | 0.961 µM and 0.171 µM | > 50 | > 44.5 µM | 4.48 µM and 2.5 µM | > 41.6 µM and 8.08 µM | 3.05 |  | 2.15 µM and 4.12 µM | > 82.3 µM | 36.3 µM and 3.86 µM | 0.163 | 66.7 µM and 11.3 µM |  | 3.77 µM and 0.791 µM | 4.99 µM and 1.74 µM | 0.0356 µM and 0.0156 µM | 0.0551 µM and 0.28 µM | 7.14 µM and 1.62 µM | 0.00836 | 
9 | CC[C@@]12CCC(=S)N(CCSc3ccccc3)[C@@H]1c1c(n(S(=O)(=O)c3ccc(OC)cc3)c3ccccc13)CC2 |  | > 100 | > 100 µM | > 100 µM | > 100 µM | > 100 | > 100 µM | > 100 µM | > 100 µM | > 100 µM | > 100 | > 100 µM | > 100 µM |  |  |  |  |  |  | 
10 | CC(=O)NN(c1ccccc1)C1CCN(c2ccccc2)N1C(C)=O (stereo not drawn) | > 10 µM | > 10 | > 10 µM | > 10 µM |  | > 10 | > 10 µM | > 10 µM | > 10 µM | > 10 µM | > 10 | > 10 µM | > 10 µM |  |  |  |  |  |  | 
11 | Clc1cc2ncn(C3CCCCO3)c2cc1Cl (stereo not drawn) |  | 84.5 | 92.4 µM | > 100 µM | > 100 µM | 80.9 | > 100 µM | > 100 µM | > 100 µM | > 100 µM | > 100 |  |  |  |  |  |  |  |  | 
12 | O=S(=O)(O)c1cc(O)c(N=Nc2ccc3ccccc3c2O)c2ccccc12 | > 100 µM | > 100 | > 100 µM | > 100 µM | > 100 µM | 49.5 | 30.8 µM |  | 58.7 µM | > 100 µM | 84.6 | 66.7 µM |  |  |  |  |  |  |  | 
13 | COc1ccc(C23OCC(Cc4cc(OC)c(OC)cc42)C3CO)cc1OC (stereo not drawn) | > 100 µM | > 100 | > 100 µM | > 100 µM | > 100 µM | > 100 | > 100 µM |  |  | > 100 µM | > 100 |  | > 100 µM |  |  |  |  |  |  | 
14 | C=CCOC(=O)N1c2ccc(O)cc2[C@@]23O[C@@]24[C@@H]1C#C/C=C\C#C[C@]3(O)C(=O)C[C@@H]4C | > 100 µM |  | > 100 µM | > 100 µM | > 100 µM | > 100 | > 100 µM | > 100 µM | > 100 µM | > 100 µM | > 100 | > 100 µM | > 100 µM |  |  |  |  |  |  | 
15 | CCC(=C/[C@H](C)C/C=C/C(C)=C/[C@@H](C)C(=O)[C@@H](C)[C@H](O)[C@@H](C)CC)/C=C/[C@H]1CC=CC(=O)O1 | 1.89 µM and 10.9 µM | 1.37 | 12 µM and 14.3 µM | 0.002 µM |  |  | 5.26 µM and 13.3 µM | 2.79 µM and 11.3 µM | 2.79 µM and 12.2 µM | < 0.0012 µM | 1.88 | 2.22 µM and 18 µM | 1.26 µM and 1.64 µM |  |  |  |  |  |  | < 0.0012
16 | COc1ccc(CC[N+]2(C)COc3cc4oc(=O)cc(C)c4cc3C2)cc1OC (stereo not drawn) | > 100 µM | > 100 | > 100 µM | > 100 µM | > 100 µM | > 100 | > 100 µM | > 100 µM | > 100 µM | > 100 µM | > 100 | > 100 µM |  |  |  |  |  |  |  | 
17 | CC(C)(C)OC(=O)NC(Cc1ccc(OCc2ccccc2)cc1)C(=O)NC(CCCCNC(=O)OCc1ccccc1)C(=O)NC(CCCCNC(=O)OCc1ccccc1)C(=O)ON1C(=O)CCC1=O (stereo not drawn) (Boc-Tyr(Bn)-Lys(Cbz)-Lys(Cbz)-OSu; configuration not given here) | > 100 µM | 33.2 | > 100 µM | 58.7 µM | > 100 µM |  | > 100 µM | 94.8 µM | > 100 µM | 99.4 µM | > 100 | > 100 µM | > 100 µM |  |  |  |  |  |  | 

Source: PubChem BioAssay (NCI)
